Test system: Methicillin Resistant Staphylococcus aureus (NRS 384/USA 300)
Experiment: Deep partial thickness biofilm prevention porcine wound model, MRSA
Type: in vivo
Experimental: The animals were prepared as described (above). Ninety-six (96) rectangular wounds measuring 10 mm×7 mm×0.5 mm deep were made in the paravertebral and thoracic area with a specialized electrokeratome fitted with a 7 mm blade. The wounds were separated from one another by 15 mm of unwounded skin and individually dressed. The wounds were then inoculated and treated. A fresh culture of Acinetobacter baumannii ATCC 19606 or Methicillin Resistant Staphylococcus aureus (NRS 384/USA 300) was used in these studies. The challenge inoculum suspension was prepared by scraping the overnight growth from a culture plate into 5 ml of normal saline. […] Serial dilutions were made until a concentration of 10^6 CFU/ml was achieved. […] In addition, serial dilutions of the suspension were plated onto selective media and the plates were incubated aerobically overnight (16-24 hours) at 37° C., in order to quantify the exact concentration of viable organisms used for this experiment. […]
Twelve (12) wounds were recovered from each treatment group on each assessment day (days 3 and 4). […] Serial dilutions were made from all culture samples, and the extent of microbiological contamination was assessed using the Spiral Plater System (Spiral Biotech, Norwood, Mass.). […] All plates were incubated aerobically overnight 24 hours at 37° C., after which time the number of viable colonies were counted.

Compound: C/C(=C\C(=O)OCCCCCCCCC(=O)O)C[C@@H]1OC[C@H](C[C@@H]2O[C@H]2[C@@H](C)[C@H](C)O)[C@@H](O)[C@H]1O [mupirocin]
- biofilm infection at day 3 compared to day 4 (MRSA) (across treatment days): significant reduction in biofilm infection
- biofilm infection (MRSA) (days 3 and 4): significantly reduced biofilm infection
